Literature values, collected in patent US11304923B2, “Use of a benzoate containing composition to treat glycine encephalopathy” (Rush University Medical Center, priority 2017, dated 2022).

How the values were obtained:
[1] = tested on: disease process of multiple sclerosis (MS); conditions: mice
DJ-1 = conditions: astrocytes and neurons
[2] = tested on: brain-derived neurotrophic factor (BDNF); conditions: brain cells
neurotrophin-3 (NT-3) = conditions: brain cells

In the case of `O=C([O-])c1ccccc1.[Na+]` [sodium benzoate], the “disease process of multiple sclerosis (MS)” value [1] is listed as “suppresses”, the DJ-1 protein level (DJ-1) is listed as “up-regulates” and the “production of BDNF” value [2] is listed as “increases”. For the same compound, the “production of NT-3” value (neurotrophin-3 (NT-3)) was “increases”.
